Reference: patent US12285426B2, “Combination serotonin specific reuptake inhibitor and serotonin 1A receptor partial agonist for reducing L-DOPA-induced dyskinesia” (The Research Foundation for The State University of new York, priority 2018, dated 2025)

How the values were obtained:
TRPV1 ion channel = TRPV1 ion channel (Homo sapiens, UniProt Q8NER1); settings: depending on the pharmacological assay; cited from earlier work
[1] = tested on: L-DOPA-induced dyskinesia; assay: FIG. 24: LID development over 14 days, vilazodone and/or amantadine; format: in vivo; settings: for ALO AIMs, LID development: over 14 days
From the text: FIGS. 24B-24E show percent intact+S.E.M. over time for the respective groups.

[2] = tested on: 6-OHDA-lesioned rats, forelimb akinesia; assay: Experiment 2: forepaw adjusting steps (FAS); format: in vivo, rat
From the text: (§1) Forepaw adjusting steps (FAS): The FAS test is a measure of forelimb akinesia performed according to previous protocols (Bishop et al., 2012; Chang et al., 1999). Data are presented as mean percent intact stepping where the sum of the total steps with the lesioned forepaw was divided by the total steps with the unlesioned forepaw multiplied by 100. Lower percent intact scores indicate greater forelimb akinesia. Prior to baseline, rats received 2 acclimation periods. On-treatment FAS was performed 60 min post-L-DOPA.

hemi-parkinsonian rats = assay: Side effects during chronic Vilazodone treatment; format: in vivo, rat
[3] = tested on: 6-OHDA-lesioned rats, forelimb akinesia; assay: Example 2: stepping test; format: in vivo, rat; settings: 60 minutes post L-DOPA
Description: 6-OHDA-induced dopaminergic lesions: Adult male Sprague-Dawley rats were randomly assigned to groups receiving either a 6-OHDA or sham lesion. All rats received desipramine (10 mg/kg i.p.) 30 min prior to surgery to prevent the lesioning of norepinephrine neurons by 6-OHDA. A single injection of 6-OHDA (8 μg of 6-OHDA free base in 4 p of 0.1% ascorbic acid) was delivered into the right medial forebrain bundle (coordinates taken from bregma: −4.3 mm AP, 1.6 mm ML, −8.3 mm DV). The same experimental treatment was performed for the sham-operated rats using vehicle (4 μl of 0.1% ascorbic acid). A standard stepping test was used to evaluate the effectiveness of the 6-OHDA lesion.
Rats were treated for 5 consecutive days/week (Mon-Fri), for 2 weeks. On the second day of each week, stepping tests were performed prior to drug administration, and 60 minutes post L-DOPA treatment.

[4] = tested on: 6-OHDA-lesioned rats, L-DOPA-induced dyskinesia; assay: Experiment 1: AIMs, established LID in L-DOPA-primed hemi-parkinsonian rats; format: in vivo, rat
[5] = tested on: L-DOPA-induced dyskinesia; assay: FIG. 23A-23C: ALO AIMs, vilazodone and/or amantadine with L-DOPA; settings: for ALO AIMs, combined amantadine and vilazodone: VZD 2.5 mg/kg, AMA 40 mg/kg, L-DOPA
[6] = tested on: 6-OHDA-lesioned rats, L-DOPA-induced dyskinesia; assay: Experiment 2: AIMs, LID development in L-DOPA-naive hemi-parkinsonian rats; format: in vivo, rat; settings: VZD 10 or 20 mg/kg + LD 6 mg/kg, treatment naive, 3 weeks
[7] = tested on: extracellular levels of norepinephrine or dopamine; settings: 1 and 10 mg/kg; cited from earlier work
[8] = tested on: 6-OHDA-lesioned rats, forelimb akinesia; assay: Experiment 1: forepaw adjusting steps (FAS); format: in vivo, rat
From the text: as §1, with “Conti et al., 2014). […] Forepaw” for “Forepaw”

[9] = tested on: L-DOPA-primed 6-OHDA-lesioned rats; 5-HT1AR
[10] = tested on: L-DOPA-primed 6-OHDA-lesioned rats; 5-HT1BR; assay: Experiment 3: AIMs with 5-HT1BR antagonist NAS-181; format: in vivo, rat; settings: VZD 10 mg/kg, NAS-181 3.0 mg/kg, LD 6 mg/kg s.c.
Description: All 6-OHDA-lesioned rats (n=17) were tested on the FAS prior to treatment regimens to establish baseline motor performance. Three-weeks post-surgery, all rats were primed with L-DOPA (6 mg/kg, s.c.) for 14 days.
Beginning 10 min post-treatment, a trained and blinded observer assigned a severity score (0-4) to each of the ALO AIMs based on 1 min ratings every 10 min for 3 h: 0, not present; 1, present from 1-29 s; 2, present 30-59s; 3, present all 60 s, but interruptible by a cylinder tap; 4, present 60 s and not interruptible by a cylinder tap.

[11] = tested on: 6-OHDA-lesioned rats, L-DOPA-induced dyskinesias; assay: Example 2: LIDs scoring in unilateral 6-OHDA-lesioned rats; format: in vivo, rat; settings: vilazodone 10 mg/kg or escitalopram 12.5 mg/kg + L-DOPA 5 mg/kg, 2 weeks
Description: 6-OHDA-induced dopaminergic lesions: Adult male Sprague-Dawley rats were randomly assigned to groups receiving either a 6-OHDA or sham lesion. […] [[…] 2019]. […] Rats were treated for 5 consecutive days/week (Mon-Fri), for 2 weeks. […] All rats were evaluated three times per week for the presence of L-DOPA-induced dyskinesias (LIDs) (Wed-Fri) and once for the stepping test (Tue). […] Scores were given over 1 min epochs and classified as axial, limb, orolingual and locomotive. […] The severity of each LID was scored using a standard scale. Each dyskinetic behavior was given an intensity and frequency score, which were then multiplied. The average sum of the products of each LID was determined in each animal.

[12] = tested on: striatum and DRN monoamines and metabolites; assay: Experiment 1: HPLC of striatal and dorsal raphe tissue monoamines; format: in vivo, rat
Description: Rats (n=30) were rendered hemi-parkinsonian with unilateral 6-OHDA lesions of the left MFB. Three-weeks post-lesion, animals were divided into 2 equally disabled groups, measured by forepaw adjusting steps (FAS, see below). One group (n=8) began receiving 14 days of daily vehicle (0.9% NaCl+0.1% ascorbic acid) and the other (n=22) received L-DOPA methyl ester (6 mg/kg, s.c.; Sigma)+DL-serine 2-(2,3,4-trihydroxybenzyl) hydrazine hydrochloride (benserazide; 15 mg/kg, s.c.; Sigma), hereafter L-DOPA, dissolved in vehicle at a volume of 1 mL/kg. […] Thereafter, L-DOPA-treated animals with Axial, Limb, and Orolingual (ALO) AIMs (see description below, FIG. 1A)<30 were excluded from the study and the remaining L-DOPA-treated animals were divided into 3 equally dyskinetic groups. […] Daily injections continued over 23 days, with behavior assayed on Days 15, 22, 29, and 36. On Day 37, animals were killed 60 min post-treatment. Left and right dorsal striata and DRN were dissected and flash frozen for HPLC analyses.
High-performance liquid chromatography (HPLC): HPLC, a method for semi-automated catecholamine analysis with coulometric detection, was performed according to prior protocols (Bishop et al., 2009) to determine the tissue levels of monoamines, their metabolites, and monoamine turnover in the striatum and DRN. The limit of detection for DOPAC, DA, 5-hydroxyindoleacetic acid (5-HIAA) and 5-HT was 10^−10 M. Final oxidation current values were plotted on a standard curve from 10^−6 M to 10^−9 M and expressed as pg of monoamine or metabolite per mg of tissue unless otherwise specified.
On the final treatment day, animals were sacrificed 60 min post-LD treatment and left and right striata and dorsal raphe nucleus (DRN) were collected for high performance liquid chromatography (HPLC) analysis. Values (means±standard mean error) are expressed as picograms of monoamine or metabolite per milligram wet tissue weight. Turnover estimates were determined by dividing a subject's metabolite value by its corresponding monoamine.

DAT = DAT (Homo sapiens, UniProt Q01959); settings: cited from earlier work
Chain of DAT (Q01959 whole entry, species assumed): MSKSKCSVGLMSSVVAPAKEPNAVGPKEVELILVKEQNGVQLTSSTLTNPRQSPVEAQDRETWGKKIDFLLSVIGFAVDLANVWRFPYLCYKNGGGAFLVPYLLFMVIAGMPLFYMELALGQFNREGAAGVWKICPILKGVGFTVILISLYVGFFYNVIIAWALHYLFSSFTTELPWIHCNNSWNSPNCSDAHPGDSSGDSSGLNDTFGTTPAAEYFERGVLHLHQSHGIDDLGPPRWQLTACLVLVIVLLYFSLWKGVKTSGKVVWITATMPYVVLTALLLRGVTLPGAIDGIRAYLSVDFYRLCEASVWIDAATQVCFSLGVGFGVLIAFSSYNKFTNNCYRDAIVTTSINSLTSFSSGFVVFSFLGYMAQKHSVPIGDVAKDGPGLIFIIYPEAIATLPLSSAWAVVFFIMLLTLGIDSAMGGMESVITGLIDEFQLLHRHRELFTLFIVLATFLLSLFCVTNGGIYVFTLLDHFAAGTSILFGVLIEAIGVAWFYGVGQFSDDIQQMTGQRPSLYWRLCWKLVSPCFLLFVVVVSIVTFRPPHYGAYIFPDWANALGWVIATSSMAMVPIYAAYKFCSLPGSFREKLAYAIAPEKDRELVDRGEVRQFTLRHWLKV

[13] = tested on: striatal c-Fos, PPD, PPE, PPT, 5-HT1AR mRNA; assay: Experiment 2: real-time RT-PCR of striatal gene expression
[14] = molecular target: T1, 5-HT1A receptor expressed in SF9 cells (Homo sapiens, UniProt P08908); settings: cited from earlier work
T1 construct: expressed in transfected cells; host or cells: SF9 cells
T1 sequence (P08908 1-422): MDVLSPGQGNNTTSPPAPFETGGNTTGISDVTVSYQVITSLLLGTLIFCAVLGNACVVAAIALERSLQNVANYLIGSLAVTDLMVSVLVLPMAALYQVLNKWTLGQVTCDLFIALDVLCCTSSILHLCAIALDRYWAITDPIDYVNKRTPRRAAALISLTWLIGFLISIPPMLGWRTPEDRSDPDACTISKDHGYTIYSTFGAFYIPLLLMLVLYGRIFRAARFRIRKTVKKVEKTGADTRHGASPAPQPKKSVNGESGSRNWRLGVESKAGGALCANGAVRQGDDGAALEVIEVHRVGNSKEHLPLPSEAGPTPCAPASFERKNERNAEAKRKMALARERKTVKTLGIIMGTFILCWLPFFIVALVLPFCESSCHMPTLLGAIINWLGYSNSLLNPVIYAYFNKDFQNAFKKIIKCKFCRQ

[15] = tested on: MSNs of dyskinetic 6-OHDA-lesioned rats; assay: Example 2: electrophysiology of striatal MSNs; format: in vivo, rat; settings: co-administration with L-DOPA
NET = NET (Homo sapiens, UniProt P23975); settings: cited from earlier work
Chain of NET (P23975 whole entry): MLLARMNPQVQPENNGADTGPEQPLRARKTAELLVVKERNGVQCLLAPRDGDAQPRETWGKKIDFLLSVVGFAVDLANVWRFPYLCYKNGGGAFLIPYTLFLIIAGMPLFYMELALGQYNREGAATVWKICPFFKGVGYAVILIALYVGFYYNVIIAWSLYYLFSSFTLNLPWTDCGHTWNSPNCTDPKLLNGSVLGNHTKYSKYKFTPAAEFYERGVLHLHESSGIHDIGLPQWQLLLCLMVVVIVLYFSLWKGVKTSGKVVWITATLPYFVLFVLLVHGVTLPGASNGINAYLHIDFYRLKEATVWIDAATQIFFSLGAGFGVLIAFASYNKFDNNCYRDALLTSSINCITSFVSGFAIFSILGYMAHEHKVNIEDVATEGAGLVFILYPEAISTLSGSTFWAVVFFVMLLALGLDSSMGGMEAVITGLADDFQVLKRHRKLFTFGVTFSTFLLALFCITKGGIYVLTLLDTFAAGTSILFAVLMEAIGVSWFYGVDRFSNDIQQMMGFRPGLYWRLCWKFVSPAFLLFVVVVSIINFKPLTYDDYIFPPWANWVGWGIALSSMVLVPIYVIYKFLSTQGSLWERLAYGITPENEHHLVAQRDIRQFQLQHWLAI

dyskinesia = settings: human and animal studies; cited from earlier work
[16] = tested on: lesion-induced motor deficits; assay: FIG. 23D: % intact stepping; format: in vivo; settings: L-DOPA alone or with AMA 40 mg/kg and/or VZD 2.5 mg/kg
[17] = cited from earlier work
SERT = SERT (Homo sapiens, UniProt P31645); settings: clinically effective dose range 5-20 mg/day; cited from earlier work
Chain of SERT (P31645 whole entry, species assumed): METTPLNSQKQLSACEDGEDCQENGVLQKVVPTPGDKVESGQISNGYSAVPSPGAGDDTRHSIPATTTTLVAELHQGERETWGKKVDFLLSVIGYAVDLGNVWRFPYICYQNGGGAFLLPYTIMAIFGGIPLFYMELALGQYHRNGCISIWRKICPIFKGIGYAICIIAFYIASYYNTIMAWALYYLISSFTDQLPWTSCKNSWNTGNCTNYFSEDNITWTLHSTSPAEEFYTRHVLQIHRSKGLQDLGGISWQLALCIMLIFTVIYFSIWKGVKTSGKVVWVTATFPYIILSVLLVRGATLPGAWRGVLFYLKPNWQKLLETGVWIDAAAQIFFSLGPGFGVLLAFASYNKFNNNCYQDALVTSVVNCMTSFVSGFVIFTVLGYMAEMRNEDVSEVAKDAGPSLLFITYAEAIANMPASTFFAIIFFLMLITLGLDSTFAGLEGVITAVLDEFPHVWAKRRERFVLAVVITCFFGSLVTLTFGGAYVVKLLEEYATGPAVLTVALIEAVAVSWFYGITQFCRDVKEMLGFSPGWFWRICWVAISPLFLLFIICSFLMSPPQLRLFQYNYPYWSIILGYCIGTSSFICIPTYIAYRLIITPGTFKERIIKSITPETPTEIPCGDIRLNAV

Chain of TRPV1 ion channel (Q8NER1 whole entry): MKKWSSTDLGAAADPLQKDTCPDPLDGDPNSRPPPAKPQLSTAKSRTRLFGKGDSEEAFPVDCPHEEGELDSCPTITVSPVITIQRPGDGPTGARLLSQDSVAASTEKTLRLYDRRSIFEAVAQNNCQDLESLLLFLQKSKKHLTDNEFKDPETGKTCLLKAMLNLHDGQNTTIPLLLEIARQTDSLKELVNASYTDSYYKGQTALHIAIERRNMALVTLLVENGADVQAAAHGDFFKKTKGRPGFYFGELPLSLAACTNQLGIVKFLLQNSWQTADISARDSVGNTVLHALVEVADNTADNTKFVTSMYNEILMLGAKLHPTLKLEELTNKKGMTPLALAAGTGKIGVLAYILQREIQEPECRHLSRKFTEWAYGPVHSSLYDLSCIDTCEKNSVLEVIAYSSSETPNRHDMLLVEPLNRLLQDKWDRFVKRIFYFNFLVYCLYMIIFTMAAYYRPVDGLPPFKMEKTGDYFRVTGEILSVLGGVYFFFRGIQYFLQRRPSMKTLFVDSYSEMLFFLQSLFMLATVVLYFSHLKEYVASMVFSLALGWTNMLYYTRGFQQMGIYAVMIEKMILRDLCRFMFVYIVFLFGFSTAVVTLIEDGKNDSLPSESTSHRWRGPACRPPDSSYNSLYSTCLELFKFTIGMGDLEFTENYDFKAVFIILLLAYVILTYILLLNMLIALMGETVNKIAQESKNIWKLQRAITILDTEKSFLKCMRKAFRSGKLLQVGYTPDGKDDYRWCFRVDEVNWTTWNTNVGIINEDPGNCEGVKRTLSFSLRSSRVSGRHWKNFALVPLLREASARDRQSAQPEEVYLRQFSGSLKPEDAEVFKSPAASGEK

Oc1cc2c(cc1O)CN(C(=S)NCCc1ccc(Cl)cc1)CCC2 [Capsazepine]
IC50 (TRPV1 ion channel): nanomolar to low micromolar range

Cl.N#Cc1ccc2[nH]cc(CCCCN3CCN(c4ccc5oc(C(N)=O)cc5c4)CC3)c2c1 [Vilazodone, 5-{4-[4-(5-cyano-3-indolyl)-butyl]-1-piperazinyl}-benzofuran-2-carboxamide hydrochloride]
ALO AIMs, LID development [1]: persistently reduced AIMs
reduction of development and expression of LID, compared with Amantadine ([1]; validated rodent model): more effective than Amantadine
FAS vs baseline ([2]; LD 6 mg/kg alone or with VZD): significant increases in stepping, relative to baseline, from Day 8 thereafter
FAS vs VZD(0)+LD(6) ([2]; VZD 10 mg/kg + LD 6 mg/kg, by Day 15): significantly enhanced the pro-motor effects of L-DOPA
side effects, like 5-HT syndrome (hemi-parkinsonian rats): weren't observed at any time point
forelimb akinesia / L-DOPA therapeutic (prokinetic) efficacy [3]: no effects on forelimb akinesia or L-DOPA-induced prokinetic effects
ALO AIMs, established LID ([4]; VZD 10 or 20 mg/kg s.c. 5 min before LD 6 mg/kg, vs VZD(0)+LD(6), from first day, persisted throughout treatment): dramatically reduced AIMs
anti-LID efficacy, 20 mg/kg vs 10 mg/kg ([4]; dissipated after the first week): initially had greater anti-LID efficacy than the lower dose
ALO AIMs, combined amantadine and vilazodone [5]: continued to reduced AIMs
ALO AIMs ([5]; VZD 5 mg/kg + L-DOPA): moderately
ALO AIMs ([5]; VZD 1 and 2.5 mg/kg + L-DOPA): modestly reduced AIMs
ALO AIMs, LID development [6]: significantly attenuated the development of LID
change in extracellular levels of norepinephrine or dopamine [7]: no change
FAS motor performance vs baseline ([8]; LD 6 mg/kg alone or with VZD 10/20 mg/kg): emerged 7 days later
FAS stepping vs VZD(0)+LD(6) ([8]; VZD 20 mg/kg, Day 29, transient): depressed stepping
LID duration (time course) ([9]; VZD 10 mg/kg + LD 6 mg/kg): little effect on LID duration
peak dyskinesia (time course) ([9]; VZD 10 mg/kg + LD 6 mg/kg): reduced peak dyskinesia
summed ALO AIMs ([9]; VZD 10 mg/kg, WAY 0.5 mg/kg, LD 6 mg/kg s.c.): significantly reduced ALO AIMs
ALO AIMs [10]: significantly reduced ALO AIMs
LIDs severity [11]: most significant effect on attenuating LIDs
5-HIAA ([12]; Dorsal Raphe Nucleus, VZD(10)+LD(6) mg/kg s.c.): 12541 pg/mg wet tissue weight
5-HT Turnover ([12]; Striatum Lesion, VZD(10)+LD(6) mg/kg s.c.): 8.38
DRN 5-HT ([12]; VZD 10 mg/kg + LD): significantly increased DRN 5-HT
striatal 5-HIAA ([12]; VZD 20 mg/kg): attenuated 5-HIAA compared to all other treatments
striatal 5-HT Turnover ([12]; VZD 20 mg/kg vs VZD(0)+LD(0)): reduced 5-HT Turnover
DRN DA Turnover ([12]; VZD 10 or 20 mg/kg + LD): DA Turnover was attenuated
DRN 5-HT Turnover ([12]; both doses VZD + LD): attenuated 5-HT Turnover
DA in lesioned striatum (planned comparisons) ([12]; both doses VZD vs VZD vehicle groups): significantly increased DA in the lesioned striatum
IC50 (DAT): 37 nM
striatal PPE mRNA ([13]; lesioned striata, LD 6 mg/kg, VZD 20 mg/kg, day 23): modestly, though significantly reduced
striatal PPD mRNA ([13]; lesioned striata, LD 6 mg/kg, VZD 10/20 mg/kg, day 23): dose-dependently attenuated
striatal c-Fos mRNA ([13]; lesioned striata, LD 6 mg/kg, VZD 10 or 20 mg/kg, day 23): diminished by either dose
striatal 5-HT1AR mRNA ([13]; rat, in vivo): did not affect striatal 5-HT1AR mRNA
striatal PPT mRNA ([13]; rat, in vivo): reduced striatal PPT
increase of [35S]GTPyS binding compared to vehicle [14]: fourfold
spike probability and onset latency [15]: normalizes spike probability and onset latency
IC50 (NET): 56 nM

NC12CC3CC(CC(C3)C1)C2 [Amantadine, 1-adamantanamine]
ALO AIMs, LID development [1]: initially reduced AIMs, but this suppression diminished over time
EC50 (plasma level reducing dyskinesia by 50%) (dyskinesia): 1,400 ng/mL
% intact stepping [16]: may reduce improvements
side effects ([5]; AMA 60 mg/kg): appeared to produce side effects
ALO AIMs ([5]; AMA 20, 40, 60 mg/kg + L-DOPA): did not appear to alter AIMs
ALO AIMs, combined amantadine and vilazodone [5]: counteracted by Amantadine
peak plasma concentrations ([17]; IR 100 mg twice a day): < 1,000 ng/mL
half-life ([17]; in vivo): around 17 hours
maximum plasma concentration ([17]; single dose 100 mg): around 220 ng/mL

Cc1ccc(Sc2ccccc2N2CCNCC2)c(C)c1 [Vortioxetine]
SERT occupancy (SERT): 50 to 80%
